From PMC6956362 (ACS Medicinal Chemistry Letters, 2019)

How the values were obtained:
[1] = Stability in PBS, RP-HPLC analysis; format: physicochemical; details: pH 7.4, 22 °C, up to 48 h
CHO-hNTS1R cells = test: Confocal microscopy at live CHO-hNTS1R cells; format: cell-based, Chinese hamster; details: for unspecific binding: 22–25 °C, in the presence of 1 (100-fold excess)

| SMILES | stability [1] | unspecific binding (CHO-hNTS1R cells) | cellular uptake (CHO-hNTS1R cells; 200 nM, 22-25 °C, CHO-hNTS1R cells) |
| --- | --- | --- | --- |
| CC[C@H](C)[C@H](NC(=O)[C@H](Cc1ccc(O)cc1)NC(=O)[C@@H]1CCCN1C(=O)[C@H](CCCNC(=N)N)NC(=O)[C@@H](N)CCCNC(=N)NC(=O)NCCCCNC(=O)CCCCCN1\C(=C/C=C/C=C/C2=[N+](CCCCS(=O)(=O)[O-])c3ccccc3C2(C)C)C(C)(C)c2cc(S(=O)(=O)O)ccc21)C(=O)N[C@@H](CC(C)C)C(=O)O [compound 6, N-(N-[4-{N-(6-[3,3-Dimethyl-6-sulfonato-2-{5-(3,3-dimethyl-1-[4-sulfonatobutyl]-3H-indol-1-ium-2-yl)penta-2,4-dien-1-ylidene}indolin-1-yl]hexanoyl)amino}butyl]aminocarbonyl)-Arg-Arg-Pro-Tyr-Ile-Leu bis(hydrotrifluoroacetate)] | excellent stabilities | very low | – |
| CC[C@H](C)[C@H](NC(=O)[C@H](Cc1ccc(O)cc1)NC(=O)[C@@H]1CCCN1C(=O)[C@H](CCCNC(=N)N)NC(=O)[C@@H](N)CCCNC(=N)NC(=O)NCCOCCOCCNC(=O)CCCCCN1\C(=C/C=C/C=C/C2=[N+](CCCCS(=O)(=O)[O-])c3ccccc3C2(C)C)C(C)(C)c2ccccc21)C(=O)N[C@@H](CC(C)C)C(=O)O [compound 11] | excellent stabilities | very low | – |
| CC[C@H](C)[C@H](NC(=O)[C@H](Cc1ccc(O)cc1)NC(=O)[C@@H]1CCCN1C(=O)[C@H](CCCNC(=N)N)NC(=O)[C@@H](N)CCCNC(=N)NC(=O)NCCOCCOCC[n+]1c(C)cc(/C=C/C=C/c2ccc(N(C)C)cc2)cc1C)C(=O)N[C@@H](CC(C)C)C(=O)O [compound 14] | minor decomposition after incubation times >24 h | very low | – |
| CC[C@H](C)[C@H](NC(=O)[C@H](Cc1ccc(O)cc1)NC(=O)[C@@H]1CCCN1C(=O)[C@H](CCCNC(=N)NC(=O)NCCOCCOCCNC(=O)CCCCCN1/C(=C/C=C/C=C/C2=[N+](CCCCS(=O)(=O)[O-])c3ccccc3C2(C)C)C(C)(C)c2cc(S(=O)(=O)O)ccc21)NC(=O)[C@@H](N)CCCNC(=N)N)C(=O)N[C@@H](CC(C)C)C(=O)O [compound 17] | excellent stabilities | – | – |
| CCNC(=O)CCCCCN1/C(=C/C=C/C=C/C2=[N+](CCCCS(=O)(=O)[O-])c3ccccc3C2(C)C)C(C)(C)c2cc(S(=O)(=O)O)ccc21 [compound 20] | – | – | no uptake |
